Where a name gives a salt, the structure may show the parent alone. No end group written: not given here.
Legend:
[1] = system: human intestinal organoids; assay: Organoid swelling observed by phase contrast / time-lapse imaging; assay type: cell-based; details: for increase in cross-sectional area of organoids: 60 min after induction, same mediator concentrations as FIG. 11; for swelling response induced by endogenous mediator: PGE2 10^−8 M, VIP 10^−7 M, ACh 10^−3 M, histamine 10^−3 M, bradykinin 10^−5 M, serotonin 10^−3 M, up to 60 min after induction
Experimental: The phase contrast images illustrated are prior to swelling induction and 60 minutes after swelling induction. Scale-bar: 100 μm. Induction was by the addition to a culture medium of: PGE2 (10^−8 M, (A)), VIP (10^−7 M, (B)), ACh (10^−3 M, (C)), histamine (10^−3 M, (D)), bradykinin (10^−5 M, (E)), and serotonin (10^−3 M, (F)).
Examination of Endogenous Mediator Candidates for Anion/Fluid Secretion Next, the fluid secretion function measurement method of the present embodiment was employed to examine the direct effect of various endogenous mediators that might possibly induce anion/fluid secretion from intestinal epithelial cells by testing six types of endogenous mediators to determine if they had the capability to induce a swelling response in organoids equivalent to that of forskolin-induced swelling.

[2] = system: human jejunum-derived organoids; assay: Organoid swelling response quantified by cross-sectional area with 3D-scanning system; assay type: cell-based; details: for dose-response curve profile of swelling: human jejunal organoid, FIG. 12
Experimental: The organoid cross-sectional area was measured using a 3D-Scanning System (Cell3 […], Screen Holdings, Kyoto, Japan) as the image analysis device 100. […] After the passage of a preliminary culture process of leaving for 24 hours after seeding, scanning was then performed both before and 30 min after the addition of the reagent subject to analysis. An image was acquired during scanning in auto-focus (AF) mode. The analysis parameters summarized in following Table 1 were set and the cross-sectional area of recognized organoids measured automatically. Note that changes over time due to the addition of a reagent subjected to analysis can be observed in the following manner. Namely, an object is imaged at time (T0) prior to adding a reagent subjected to analysis (T0 imaging process). Then the same object is imaged at time (TN) when a prescribed time (30 minutes, for example) has elapsed since adding the reagent subjected to analysis. Determination is then made as to whether or not the object is an object subjected to analysis. By performing the selection process and the determination process, the change over time observations are only made for objects determined be subjected to analysis thereby at both time T0 and time TN. Then in an area change calculation process, an area (A0) at time T0 and an area (AN) at time TN are calculated for the objects subject to analysis. The change over time (%) based thereon can be found, for example, using the following formula. (AN-A0)/A0×100 Using forskolin-induced swelling as a positive control, testing was next performed so see if such a swelling response could be quantified using the 3D-scanning system described. To optimize the quantification efficiency and accuracy, organoids were subjected to analysis after performing the preliminary culture process at one day after the last passage. This was done since the organoids generally held their cystic shape at this time point. The thresholds to recognize cross-section borders of each organoid were then optimized as set out in Table 1. Thus utilizing the fluid secretion function measurement method of the present embodiment enables drug response screening to be performed at the same time as determining the dose-dependency curves of a limited number of test reagents. Whether or not the present system could determine the dose-dependency curves of forskolin was thereby tested. The dose-dependency curve for forskolin-induced swelling when using a human jejunum-derived organoids was thereby found to be expressed by a standard sigmoid shaped curve, with the log EC50 value thereof calculated as -7.58 (FIG. 10).

Compound: CCCCC[C@H](O)/C=C/[C@H]1[C@H](O)CC(=O)[C@@H]1C/C=C\CCCC(=O)O [PGE2, prostaglandin E2]
- increase in cross-sectional area of organoids [1]: large overall increase
- swelling response induced by endogenous mediator [1]: rapid and continuous response
- dose-response curve profile of swelling [2]: clear sigmoid-shaped response curve

Compound: C=C[C@@]1(C)CC(=O)[C@]2(O)[C@@]3(C)[C@@H](O)CCC(C)(C)[C@@H]3[C@H](O)[C@H](OC(C)=O)[C@@]2(C)O1 [forskolin]
- time for which swelling continued ([1]; small intestinal organoids, forskolin 10^−5 M): at least 60 min
- time of continuous linear swelling response after stimulation ([2]; forskolin 10^−5 M, observed up to 240 min, area change calculation): up to 30 min
- EC50 ([2]; human small intestinal (jejunum-derived) organoids, sigmoid dose-dependency curve, average of at least three independent tests, value is log EC50, read-out: log EC50 of forskolin-induced swelling (converted)): 26.3 nM

Compound: NCCc1c[nH]cn1 [histamine]
- increase in cross-sectional area of organoids [1]: smaller than for PGE2 or VIP
- swelling response induced by endogenous mediator [1]: slow and limited response
- dose-response curve profile of swelling [2]: markedly lower response profile

Compound: NCCc1c[nH]c2ccc(O)cc12 [serotonin, serotonin hydrochloride]
- swelling response induced by endogenous mediator [1]: did not exhibit a clear effect

Compound: vasoactive intestinal polypeptide (HSDAVFTDNYTRLRKQMAVKKYLNSILN; ends and bridges not checked; UniProt P01282 125-152, looked up) [VIP, endogenous mediator acting through Gs-coupled receptors]
- increase in cross-sectional area of organoids [1]: large overall increase
- swelling response induced by endogenous mediator [1]: rapid and continuous response
- dose-response curve profile of swelling [2]: clear sigmoid-shaped response curve

Reference: patent US20200165653A1, “METHOD OF MEASURING FLUID SECRETION FUNCTION OF EPITHELIAL CELLS” (NATIONAL UNIVERSITY CORPORATION TOKYO MEDICAL AND DENTAL …, priority 2017, published 2020)
